# Assay results: US20240398817A1, “CARDIO- AND RENOSAFE ANTIDIABETIC THERAPY” (priority 2018, published 2024)
# Test system: patients with type 2 diabetes at high vascular risk
# Assay: Cardiovascular and Renal Outcomes Trial: linagliptin 5 mg once daily vs placebo on top of standard of care
# Type: in vivo
# Settings: for Hazard ratio for hospitalised heart failure: vs placebo
# Description: The effect of linagliptin on cardiovascular risk in adult patients with type 2 diabetes mellitus and with increased CV risk evidenced by a history of established macrovascular or renal disease (e.g. as defined herein) was evaluated in a multi-center, multi-national, randomized, double-blind parallel group trial. The trial compared the risk of experiencing a major adverse cardiovascular event (MACE) between linagliptin and placebo when these were added to and used concomitantly with standard of care treatments for diabetes (HbA1c), cardiovascular risk factors and renal disease.
# The primary endpoint in this trial was the time to first occurrence of three point (3P) MACE. A major adverse cardiac event was defined as a cardiovascular death or a nonfatal myocardial infarction (MI) or a nonfatal stroke. The statistical analysis plan tested for non-inferiority for the occurrence of (3P) MACE. […] The secondary endpoint was a renal composite, defined as renal death or sustained end stage renal disease or sustained decrease of 40% or more in eGFR.
# Type 2 diabetes patient with insufficient glycemic control (naïve or pre-treated with any antidiabetic background medication, excluding treatment with GLP-1 receptor agonists, DPP-4inhibitors or SGLT-2 inhibitors if ≥consecutive 7 days, e.g. having HbA1c 6.5-10%), and high risk of cardiovascular events, e.g. defined by: • albuminuria (micro or macro) and previous macrovascular disease: e.g. defined according to Condition I as indicated below; • and/or • impaired renal function: e.g. as defined according to Condition II as indicated below;
# Background and aims: People with type 2 diabetes (T2D) are at increased risk for hospitalization for heart failure (hHF), particularly in the setting of concomitant cardiovascular (CV) and/or kidney disease. […] Here we present analyses of HF outcomes with the DPP-4 inhibitor linagliptin (LINA) vs. placebo (PBO) from a Cardiovascular and Renal Outcomes Trial assessing cardiovascular safety and renal microvascular outcome in patients with type 2 diabetes at high vascular risk, a large CV outcomes trial that enrolled participants with T2D at high risk for hHF due to concomitant CV and/or chronic kidney disease. Materials and methods: People with T2D and concomitant CV and/or kidney disease were randomized to receive LINA 5 mg, or PBO once daily (1:1), on top of standard of care. All hHF, CV outcomes, and deaths were centrally adjudicated, with individual and composite HF-related outcomes analyses comparing LINA vs. placebo. Investigator-reported HF-related adverse events, whether or not confirmed by adjudication, were also analyzed. A Cox proportional hazards model adjusting for region and history of HF was used for analyses of first events. Recurrent hHF events were analyzed using a negative binomial model.
# Methods: The present Cardiovascular and Renal Outcomes Trial randomized people with T2D and i) concomitant CV disease with UACR >30 mg/g or ii) prevalent CKD (i.e. GFR <45 ml/min/1.73m2 and/or UACR >200 mg/g) to receive the DPP-4 inhibitor linagliptin (5 mg) or placebo once daily in a double-blind fashion. The primary CV endpoint was 3P-MACE, with a key secondary kidney endpoint (adjudicated ESKD, renal death, or sustained ≥40% decrease in eGFR from baseline) and other renal outcomes (including albuminuria and eGFR slope) also assessed. Subgroups were assessed by baseline kidney function (eGFR ≥/<45 ml/min/1.73m2and eGFR ≥/<30, 45 or 60 ml/min/1.73m2).
# Adults with type 2 diabetes, HbA1c 6.5-10.0% inclusive, and high CV risk were eligible for inclusion. […] Macrovascular disease eligibility criteria was based on documented and confirmed history of myocardial infarction, coronary artery disease, stroke, carotid artery disease, or peripheral artery disease. Participants with end-stage kidney disease (ESKD), defined as eGFR <15 or requiring maintenance dialysis, were excluded.
# [1] = Duration of type 2 diabetes ≥10 years
# [2] = Established macrovascular disease and albuminuria No
# [3] = Established macrovascular disease and albuminuria Yes
# [4] = Estimated glomerular filtration rate <30 mL/min/1.73 m^2
# [5] = Estimated glomerular filtration rate ≥30 to <45 mL/min/1.73 m^2
# [6] = Estimated glomerular filtration rate ≥45 to <60 mL/min/1.73 m^2
# [7] = Estimated glomerular filtration rate ≥60 mL/min/1.73 m^2
smiles,measurement,setting,value
"CC#CCn1c(N2CCC[C@@H](N)C2)nc2c1c(=O)n(Cc1nc(C)c3ccccc3n1)c(=O)n2C [Linagliptin, 1-[(4-methyl-quinazolin-2-yl)methyl]-3-methyl-7-(2-butyn-1-yl)-8-(3-(R)-amino-piperidin-1-yl)-xanthine]",3-point MACE: patients with event/patients analyzed,[1],316/2277
same,Key secondary kidney outcome: hazard ratio vs placebo,[1],0.97
same,Key secondary kidney outcome: patients with event/patients analyzed,[1],230/2277
same,"Patients with event/patients analysed, hospitalised heart failure",[1],149/2277
same,Hazard ratio for hospitalised heart failure,[1],0.89
same,3-point MACE: hazard ratio vs placebo,[2],1.13
same,3-point MACE: patients with event/patients analyzed,[2],198/1486
same,Key secondary kidney outcome: hazard ratio vs placebo,[2],1.03
same,Key secondary kidney outcome: patients with event/patients analyzed,[2],215/1486
same,"Patients with event/patients analysed, hospitalised heart failure",[2],96/1486
same,Hazard ratio for hospitalised heart failure,[2],0.87
same,3-point MACE: hazard ratio vs placebo,[3],0.94
same,3-point MACE: patients with event/patients analyzed,[3],236/2008
same,Key secondary kidney outcome: hazard ratio vs placebo,[3],1.11
same,Key secondary kidney outcome: patients with event/patients analyzed,[3],112/2008
same,"Patients with event/patients analysed, hospitalised heart failure",[3],113/2008
same,Hazard ratio for hospitalised heart failure,[3],0.93
same,3-point MACE: hazard ratio vs placebo,Established renal disease No,0.98
same,3-point MACE: patients with event/patients analyzed,Established renal disease No,120/1385
same,Key secondary kidney outcome: hazard ratio vs placebo,Established renal disease No,1.20
same,Key secondary kidney outcome: patients with event/patients analyzed,Established renal disease No,38/1385
same,"Patients with event/patients analysed, hospitalised heart failure",Established renal disease No,47/1385
same,Hazard ratio for hospitalised heart failure,Established renal disease No,1.19
same,3-point MACE: hazard ratio vs placebo,Established renal disease Yes,1.04
same,3-point MACE: patients with event/patients analyzed,Established renal disease Yes,314/2109
same,Key secondary kidney outcome: hazard ratio vs placebo,Established renal disease Yes,1.00
same,Key secondary kidney outcome: patients with event/patients analyzed,Established renal disease Yes,289/2109
same,"Patients with event/patients analysed, hospitalised heart failure",Established renal disease Yes,162/2109
same,Hazard ratio for hospitalised heart failure,Established renal disease Yes,0.84
same,"Patients with event/patients analysed, hospitalised heart failure",[4],59/516
same,Hazard ratio for hospitalised heart failure,[4],0.94
same,"Patients with event/patients analysed, hospitalised heart failure",[5],76/994
same,Hazard ratio for hospitalised heart failure,[5],0.85
same,"Patients with event/patients analysed, hospitalised heart failure",[6],38/690
same,Hazard ratio for hospitalised heart failure,[6],1.06
same,"Patients with event/patients analysed, hospitalised heart failure",[7],36/1294
same,Hazard ratio for hospitalised heart failure,[7],0.88
same,3-point MACE: hazard ratio vs placebo,Ethnicity Hispanic/Latino,1.13
same,3-point MACE: patients with event/patients analyzed,Ethnicity Hispanic/Latino,143/1227
same,Key secondary kidney outcome: hazard ratio vs placebo,Ethnicity Hispanic/Latino,1.10
same,Key secondary kidney outcome: patients with event/patients analyzed,Ethnicity Hispanic/Latino,156/1227
same,"Patients with event/patients analysed, hospitalised heart failure",Ethnicity Hispanic/Latino,58/1227
same,Hazard ratio for hospitalised heart failure,Ethnicity Hispanic/Latino,0.96
same,3-point MACE: hazard ratio vs placebo,Ethnicity Not Hispanic/Latino,0.97
same,3-point MACE: patients with event/patients analyzed,Ethnicity Not Hispanic/Latino,291/2267
same,Key secondary kidney outcome: hazard ratio vs placebo,Ethnicity Not Hispanic/Latino,0.99
same,Key secondary kidney outcome: patients with event/patients analyzed,Ethnicity Not Hispanic/Latino,171/2267
same,"Patients with event/patients analysed, hospitalised heart failure",Ethnicity Not Hispanic/Latino,151/2267
same,Hazard ratio for hospitalised heart failure,Ethnicity Not Hispanic/Latino,0.87
same,3-point MACE: hazard ratio vs placebo,Gender Female,0.96
same,3-point MACE: patients with event/patients analyzed,Gender Female,152/1346
same,Key secondary kidney outcome: hazard ratio vs placebo,Gender Female,0.92
same,Key secondary kidney outcome: patients with event/patients analyzed,Gender Female,117/1346
same,"Patients with event/patients analysed, hospitalised heart failure",Gender Female,74/1346
same,Hazard ratio for hospitalised heart failure,Gender Female,0.97
same,3-point MACE: hazard ratio vs placebo,Gender Male,1.06
same,3-point MACE: patients with event/patients analyzed,Gender Male,282/2148
same,Key secondary kidney outcome: hazard ratio vs placebo,Gender Male,1.12
same,Key secondary kidney outcome: patients with event/patients analyzed,Gender Male,210/2148
same,"Patients with event/patients analysed, hospitalised heart failure",Gender Male,135/2148
same,Hazard ratio for hospitalised heart failure,Gender Male,0.87
same,"Patients with event/patients analysed, hospitalised heart failure",Glycated haemoglobin <8.0%,107/1915
same,Hazard ratio for hospitalised heart failure,Glycated haemoglobin <8.0%,0.78
same,"Patients with event/patients analysed, hospitalised heart failure",Glycated haemoglobin ≥8.0%,102/1579
same,Hazard ratio for hospitalised heart failure,Glycated haemoglobin ≥8.0%,1.05
same,3-point MACE: hazard ratio vs placebo,Glycated hemoglobin <8.0%,0.90
same,3-point MACE: patients with event/patients analyzed,Glycated hemoglobin <8.0%,229/1915
same,Key secondary kidney outcome: hazard ratio vs placebo,Glycated hemoglobin <8.0%,1.13
same,Key secondary kidney outcome: patients with event/patients analyzed,Glycated hemoglobin <8.0%,186/1915
same,3-point MACE: hazard ratio vs placebo,Glycated hemoglobin ≥8.0%,1.20
same,3-point MACE: patients with event/patients analyzed,Glycated hemoglobin ≥8.0%,205/1579
same,Key secondary kidney outcome: hazard ratio vs placebo,Glycated hemoglobin ≥8.0%,0.94
same,Key secondary kidney outcome: patients with event/patients analyzed,Glycated hemoglobin ≥8.0%,141/1579
same,3-point MACE: hazard ratio vs placebo,History of heart failure No,1.02
same,3-point MACE: patients with event/patients analyzed,History of heart failure No,275/2542
same,Key secondary kidney outcome: hazard ratio vs placebo,History of heart failure No,1.07
same,Key secondary kidney outcome: patients with event/patients analyzed,History of heart failure No,252/2542
same,"Patients with event/patients analysed, hospitalised heart failure",History of heart failure No,96/2542
same,Hazard ratio for hospitalised heart failure,History of heart failure No,0.92
same,3-point MACE: hazard ratio vs placebo,History of heart failure Yes,1.01
same,3-point MACE: patients with event/patients analyzed,History of heart failure Yes,159/952
same,Key secondary kidney outcome: hazard ratio vs placebo,History of heart failure Yes,0.95
same,Key secondary kidney outcome: patients with event/patients analyzed,History of heart failure Yes,75/952
same,"Patients with event/patients analysed, hospitalised heart failure",History of heart failure Yes,113/952
